Data from ChEMBL document CHEMBL4813973, “Discovery of novel N-benzylbenzamide derivatives as tubulin polymerization inhibitors with potent antitumor activities” (Eur J Med Chem, 2021).
Calls of active or inactive are those of the source. The calls are words filed in the database; no cut-off is given here.

Assays:
[1] = Aqueous solubility of the compound in phosphate buffer at pH 7.4 by HPLC-UV analysis; format: physicochemical
[2] = Aqueous solubility of the compound in aqueous HCl at pH 2 by HPLC-UV analysis; format: physicochemical
[3] = Inhibition of pig brain tubulin polymerisation incubated for 30 mins and measured every 2 mins for 60 mins by spectrophotometric method; format: tissue-based, Sus scrofa
[4] = Acute toxicity in ICR mouse assessed as animal survival at 327.7 mg/kg, iv measured for 14 days; format: organism-based; settings: in vivo, time 14 day
[5] = Acute toxicity in ICR mouse assessed as animal survival at 409.6 mg/kg, iv measured for 14 days; format: organism-based; settings: in vivo, time 14 day
[6] = Acute toxicity in ICR mouse assessed as animal survival at 512 mg/kg, iv measured for 14 days; format: organism-based; settings: in vivo, time 14 day
[7] = Acute toxicity in ICR mouse assessed as animal survival at 640 mg/kg, iv measured for 14 days; format: organism-based; settings: in vivo, time 14 day
[8] = Acute toxicity in ICR mouse assessed as animal survival at 800 mg/kg, iv measured for 14 days; format: organism-based; settings: in vivo, time 14 day
[9] = Acute toxicity in iv dosed ICR mouse; format: organism-based; settings: in vivo
H22 [10] = assay: Antitumor activity against […] xenografted in ICR mouse assessed as reduction of tumor weight at 20 mg/kg/day, iv for 21 days; format: functional; settings: 504 h, time 21 day
[11] = Toxicity in ICR mouse xenografted with […] cells assessed as effect on body weight at 20 mg/kg/day, iv for 21 days; format: organism-based; settings: in vivo, 504 h, time 21 day
[12] = Toxicity in ICR mouse xenografted with […] cells assessed as effect on heart morphological changes at 20 mg/kg/day, iv for 21 days by H and E staining based assay; format: organism-based; settings: in vivo, 504 h, time 21 day
[13] = Toxicity in ICR mouse xenografted with […] cells assessed as effect on liver morphological changes at 20 mg/kg/day, iv for 21 days by H and E staining based assay; format: organism-based; settings: in vivo, 504 h, time 21 day
[14] = Toxicity in ICR mouse xenografted with […] cells assessed as effect on spleen morphological changes at 20 mg/kg/day, iv for 21 days by H and E staining based assay; format: organism-based; settings: in vivo, 504 h, time 21 day
[15] = Toxicity in ICR mouse xenografted with […] cells assessed as effect on lungs morphological changes at 20 mg/kg/day, iv for 21 days by H and E staining based assay; format: organism-based; settings: in vivo, 504 h, time 21 day
[16] = Toxicity in ICR mouse xenografted with […] cells assessed as effect on kidney morphological changes at 20 mg/kg/day, iv for 21 days by H and E staining based assay; format: organism-based; settings: in vivo, 504 h, time 21 day
H22 [17] = assay: Antitumor activity against […] xenografted in ICR mouse assessed as reduction in tumor growth at 20 mg/kg/day, iv for 21 days; format: functional, organism-based; settings: time 21.0 day
Bel-7402 [18] = assay: Antiproliferative activity against human Bel-7402 cells assessed as reduction in cell viability incubated for 72 hrs by MTT assay; format: functional, cell-based; settings: bel-7402
Bel-7402 [19] = assay: Antiproliferative activity against ADR-resistant human Bel-7402 cells assessed as reduction in cell viability incubated for 72 hrs by MTT assay; format: functional, cell-based; settings: bel-7402
K562/VCR = assay: Antiproliferative activity against VCR resistant human K562/VCR cells assessed as reduction in cell viability incubated for 72 hrs by MTT assay; format: functional, cell-based; settings: k562/vcr
H22 [20] = assay: Antitumor activity against […] xenografted in ICR mouse assessed as reduction in tumor weight at 6 mg/kg, iv dosed every other day for 21 days; format: functional; settings: 504 h, time 21 day

With `COc1ccc(CNC(=O)c2cc(F)ccc2N2CCOCC2)cc1OP(=O)([O-])[O-].[Na+].[Na+]` the solubility [1] was over 1 mg/mL, the solubility [2] was over 1 mg/mL and the IC50 [3] was 6.18 µM. The survival at 336 h [4] was 90%, the survival at 336 h [5] was 80% and the survival at 336 h [6] was 70%. The survival at 336 h [7] was 50%, the survival at 336 h [8] was 20% and the LD50 [9] was 600 mg/kg. The inhibition in vivo at 20 mg/kg/day (H22 [10]) was 71.4%, the Activity [11] was “Non-Toxic” and the Activity [12] was “Non-Toxic”. For the same compound, the Activity [13] was “Non-Toxic”, the Activity [14] was “Non-Toxic” and the Activity [15] was “Non-Toxic”. For the same compound, the Activity [16] was “Non-Toxic” and the Activity (H22 [17]) was “Active”.
For `CC(=O)O[C@H]1C(=O)[C@@]2(C)[C@H]([C@H](OC(=O)c3ccccc3)[C@]3(O)C[C@H](OC(=O)[C@H](O)[C@@H](NC(=O)c4ccccc4)c4ccccc4)C(C)=C1C3(C)C)[C@]1(OC(C)=O)CO[C@@H]1C[C@@H]2O` [PACLITAXEL], the IC50 (Bel-7402 [18]) was “Not Active”, the IC50 (Bel-7402 [19]) was “Not Active” and the IC50 (K562/VCR) was “Not Active”. The inhibition in vivo at 6 mg/kg (H22 [20]) was 72.7% and the IC50 (K562) was “Not Active”.
